Publication PMC10819767, “An ADAM10 Exosite Inhibitor Is Efficacious in an In Vivo Collagen-Induced Arthritis Model” (Pharmaceuticals, 2024)
pIC50: −log10 of the molar value.

What was measured:
[1] = system: cardiac ion channel hERG; set-up: method as in PubChem AID 1511; conditions: ref PubChem AID 1511, cited from earlier work
[2] = Body weight and clinical signs of distress during CIA study; type: in vivo; conditions: 10, 30, 50 mg/kg oral for 28 days
Source text: Mice were weighed and observed every day, and notes were made on the signs of distress.

[3] = system: TNFα; assay: RA serum marker ELISA, TNFα, CIA mice; type: in vivo, C57 BL/6 mice
Protocol: (§1) The sample size for therapeutic evaluation was calculated using power analysis based on experimental data from similar studies. In a two-sided test and setting the α value at 0.05 and desired power at 0.95, the sample size turned out to be 5 per group. We also expected deaths during the experiments; therefore, we used the formula Nt = N/1-q, where Nt is the number of mice initially used, N is the number required at the end of the study, and q is the proportion of attrition, which is generally 10%. Thus, at the end of the study period, we expected to have data from at least 6 mice per group, which is enough to attain statistical significance if it exists. Data were analyzed using a one-way ANOVA followed by Dunnett’s test compared with the vehicle control. At the end of the study, the mice were anesthetized and sacrificed using CO2 euthanasia. The hind paws of the mice were subjected to a histopathological examination, and the serum was analyzed for CRP, TNF-α, IL-6, and IL-10, as described in the below sections.
(§2) RA serum marker analysis. Blood was collected from the tail vein, and 100 µL was used for the assays. All assays were conducted using the manufacturer’s instructions for the respective assay kits. The following assay kits were purchased: Mouse TNF-α GENLISA™ ELISA (Krishgen BioSystems cat#KB2145, Mumbai, India), Mouse IL-10 GENLISA™ ELISA (Krishgen BioSystems cat#KB2072), Mouse hsC-Reactive Protein, hs-CRP GENLISA™ ELISA (Krishgen BioSystems cat#KLM0318), Mouse IL-6 GENLISA™ ELISA (Krishgen BioSystems cat#KB2068).

[4] = system: caspase 8; set-up: method as in PubChem database; conditions: ref PubChem database; cited from earlier work
[5] = system: collagen-induced arthritis (CIA) model; assay: CIA mouse model: clinical arthritis score and paw swelling; type: in vivo, C57 BL/6 mice; conditions: 10, 30, 50 mg/kg/day; days 1, 14, 21, 28
[6] = system: PBMCs and neutrophils; set-up: method as in PMID 28442704; conditions: cited from earlier work
[7] = system: IL-6; assay: RA serum marker ELISA, IL-6, CIA mice; type: in vivo, C57 BL/6 mice
Protocol: as §1, §2

[8] = system: C-reactive protein (CRP); assay: RA serum marker ELISA, CRP, CIA mice; type: in vivo, C57 BL/6 mice
Protocol: as §1, §2

[9] = system: multiple cell lines; set-up: method as in PubChem Assay IDs 1794763-1794787, 19, 20; conditions: 10 µM and up to 100 µM in some cases; ref PubChem Assay IDs 1794763-1794787, 19, 20; cited from earlier work
[10] = system: muscarinic (CHRM1); set-up: method as in PMID 34817776; conditions: cited from earlier work
[11] = molecular target: T1, ADAM17 (Homo sapiens, UniProt P78536); assay: ADAM17 enzyme assay with glycosylated substrate DM2; type: biochemical
T1 construct: purchased R & D Systems (Minneapolis, MN, USA)
T1 sequence (P78536 215-824, species assumed): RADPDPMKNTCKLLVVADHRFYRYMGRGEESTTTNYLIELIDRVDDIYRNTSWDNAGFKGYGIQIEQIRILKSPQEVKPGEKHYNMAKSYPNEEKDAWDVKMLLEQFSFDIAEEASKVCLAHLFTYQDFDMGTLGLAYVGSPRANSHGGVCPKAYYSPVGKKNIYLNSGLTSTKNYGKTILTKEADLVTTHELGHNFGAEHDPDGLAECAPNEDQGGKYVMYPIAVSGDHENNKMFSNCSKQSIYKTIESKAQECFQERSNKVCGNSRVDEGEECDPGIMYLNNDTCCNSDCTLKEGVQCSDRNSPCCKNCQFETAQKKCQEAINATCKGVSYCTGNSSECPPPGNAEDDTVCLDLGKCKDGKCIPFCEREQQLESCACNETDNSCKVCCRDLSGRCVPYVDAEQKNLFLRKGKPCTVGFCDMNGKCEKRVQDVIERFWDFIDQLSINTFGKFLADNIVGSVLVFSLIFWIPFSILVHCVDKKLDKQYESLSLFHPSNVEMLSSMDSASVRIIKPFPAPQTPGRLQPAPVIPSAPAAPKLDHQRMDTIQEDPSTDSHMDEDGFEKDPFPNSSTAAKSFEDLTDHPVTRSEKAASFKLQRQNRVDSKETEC
Protocol: ADAM10 and ADAM17 assays. Both assays were performed as published previously by us. Briefly, both assays followed the same general protocol. In total, 5 μL of the 2× enzyme solution (20 nM) in an assay buffer (10 mM Hepes, 0.001% Brij-35, pH 7.5) were added to solid bottom black 384 plates (Nunc, ThermoFisher, Waltham, MA, USA, cat# 264705). Next, test compounds and pharmacological controls were added to the corresponding wells using a 384-pin tool device (V & P Scientific, San Diego, CA, USA). After 60 min of incubation at RT, the reactions were started via the addition of 5 μL of the 2× solutions of glycosylated substrate DM2 (20 μM). The reactions were incubated at RT for 2 h, after which the fluorescence was measured using a Biotek H1 multimode microplate imager (λexcitation = 360 nm, λemission = 460 nm). IC50 values were calculated by fitting normalized data to the sigmoidal log vs. the response equation utilizing a non-linear regression analysis from GraphPad Prizm 9.

[12] = system: OPRK1; set-up: method as in PMID 34817776; conditions: cited from earlier work
[13] = CID 3117694 50 mg/kg/day, indomethacin 2.5 mg/kg
[14] = all tested doses (10, 30, 50 mg/kg), vs vehicle control

SMILES: COc1cccc(C(=O)NNC(=O)C(=O)Nc2ccc(C)c(Cl)c2)c1 [CID 3117694]
- effect on hERG with pro-arrhythmic agents (in words) ([1]; no EC50 value reported): cardioprotective
- hERG inhibition (in words) [1]: not an hERG inhibitor
- body weight vs vehicle control [2]: no significant differences in body weight
- clinical signs of distress [2]: no clinical signs of distress
- TNFα blood level vs healthy control [3, 13]: decreased the markers to the level of the healthy control
- concentration of TNFα in the blood of arthritic mice [3, 14]: lowers
- effect on caspase 8 activity [4]: does not affect
- paw swelling (in words) [5]: time- and dose-dependently decrease paw swelling
- recruitment of PBMCs and neutrophils [6]: can inhibit
- IL-6 blood level vs healthy control [7, 13]: decreased the markers to the level of the healthy control
- concentration of IL-6 in the blood of arthritic mice [7, 14]: lowers
- concentration of CRP in the blood of arthritic mice ([8]; 30 and 50 mg/kg, vs vehicle control): lowers
- CRP blood level vs healthy control [8, 13]: decreased the markers to the level of the healthy control
- effect on cellular viability [9]: no effect
- activity against CHRM1 [10]: inactive
- pIC50 [11]: < 4.00
- activity against OPRK1 [12]: inactive
